Assay results taken from PMC6535779, “A Specific, Glycomimetic Langerin Ligand for Human Langerhans Cell Targeting” (ACS Central Science, 2019).

Biological target: T1, Langerin extracellular domain (ECD) (Homo sapiens, UniProt Q9UJ71)
T1 construct: the trimeric Langerin extracellular domain (ECD) was expressed insolubly in E; made in house
Test: 19F R2-filtered NMR reporter displacement assay with Langerin
Format: binding
Conditions: for Ki: 19F R2-filtered NMR, 0.1 mM reporter ligand 24, pH 7.8, 25 °C
Procedure: Receptor Expression and Purification
General remarks. Codon-optimized genes for the expression of Langerin and DC-SIGN in E. coli were purchased from GenScript and Life Technologies, respectively. All growth media or chemicals used for receptor expression and purification were purchased from Carl Roth if not stated otherwise.
Langerin extracellular domain. Expression and purification were conducted as previously published14. Briefly, the trimeric Langerin extracellular domain (ECD) was expressed insolubly in E. coli BL21* (DE3) (Invitrogen). Following enzymatic cell lysis, inclusion bodies were harvested and subsequently solubilized. The sample was centrifuged and the Langerin ECD was refolded overnight via rapid dilution. Next, the sample was dialyzed overnight, centrifuged and purified via mannan-agarose affinity chromatography (Sigma Aldrich). For 19F R2-filtered NMR and lipid-enzyme-linked lectin assay (Lipid-ELLA) experiments, the buffer was exchanged to 25 mM Tris with 150 mM NaCl and 5 mM CaCl2 at pH 7.8 using 7 kDa size-exclusion desalting columns (Thermo Scientific). For […]
D2O, 150 mM NaCl and 5 mM CaCl2 at pH 7. The concentration of Langerin ECD was determined via UV spectroscopy (A280, 0.1% = 2.45). Purity and monodispersity of Langerin ECD samples were analyzed via SDS PAGE and DLS. […]
General remarks. 19F R2-filtered NMR experiments were conducted on a PremiumCompact 600 MHz spectrometer (Agilent). Spectra were processed in MestReNova and data analysis was performed with OriginPro 13, 15. Experiments with the Langerin ECD were performed at a receptor concentration of 50 μM in 25 mM Tris with 10% D2O, 150 mM NaCl and 5 mM CaCl2 at pH 7.8 and 25° C. […]
10% D2O, 150 mM NaCl and 5 mM CaCl2 at pH 7.0 and 25°C. TFA served as an internal reference at a concentration of 50 μM. Apparent relaxation rates R2,obs for the reporter ligand were determined using the CPMG pulse sequence as previously published3-5. […]
KI determination. KI values were determined as previously published for Langerin3. Briefly, titration experiments were conducted at a concentration of 0.1 mM of reporter ligand 24 at five competitor concentrations [I]T. Samples were prepared via serial dilution. For the acids GlcNS, GlcNAc-6-OS and GlcNS-6-OS the pH values were monitored and adjusted to 7.8 if necessary.
General remarks. 15N HSQC NMR experiments were conducted on an Ascend 700 MHz spectrometer (Bruker)16. Spectra were processed in NMRPipe17. Data analysis was performed using CCPN Analysis, MatLab and OriginPro15, 18-19. Experiments with the Langerin CRD were performed at a receptor concentration of 100 μM in 25 mM HEPES with 10% D 2O, 150 mM NaCl and 5 mM CaCl2 at pH 7.8 and 25° C. DSS-d6 served as an internal reference at a concentration of 100 μM. Spectra were referenced via the internal spectrometer reference. Spectra were acquired with 128 increments and 32 scans per increments for 150 μl samples in 3 mm sample tubes. The relaxation delay d1 was set to 1.4 s and the acquisition time tacq was set to 100 ms. The W5 Watergate pulse sequence was used for solvent suppression20. The used resonance assignment for the Langerin CRD has been published […]
KD determination. KD values were determined in titration experiments at six ligand concentrations [L]T. Samples were prepared via serial dilution. Chemical shift perturbations CSPs for Langerin CRD resonances in the fast or fast-to-intermediate exchange regime observed upon titration with ligand were calculated via Equation 121.

[1] = calculated utilizing the KI value determined for 21

T1 sequence (Q9UJ71 65-328 limits assumed): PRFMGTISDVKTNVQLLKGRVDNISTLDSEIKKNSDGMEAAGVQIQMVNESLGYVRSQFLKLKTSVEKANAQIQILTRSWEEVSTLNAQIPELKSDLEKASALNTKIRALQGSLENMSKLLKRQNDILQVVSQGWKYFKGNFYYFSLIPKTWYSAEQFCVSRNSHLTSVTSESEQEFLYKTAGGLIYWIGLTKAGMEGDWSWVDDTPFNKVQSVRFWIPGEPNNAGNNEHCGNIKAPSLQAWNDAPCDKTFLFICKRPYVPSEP

Ki [µM]	Relative potency, Langerin [1]	Relative potency, Langerin (calculated utilizing the KI value determined for GlcNAc)	affinity increase over GlcNAc (from KI values, Langerin) [fold]	affinity increase over Man-based reference molecule 21 (from KI values, Langerin, b47 words it as over natural glycans) [fold]	Compound
320 ± 50	31	13	13		Cc1ccc(S(=O)(=O)N[C@H]2C(O)O[C@H](CO)[C@@H](O)[C@@H]2O)cc1 (stereo partly drawn) [compound 2]
10000 ± 1000	1.0				CC(=O)NCCO[C@H]1O[C@H](CO)[C@@H](O)[C@H](O)[C@@H]1O [compound 21]
240 ± 30	42			42	CC(=O)NCCO[C@@H]1O[C@H](CO)[C@@H](O)[C@H](O)[C@H]1NS(=O)(=O)c1ccc(C)cc1 [compound 16]
